Measurements: patent publication US9249115B2, “N,N1 substituted piperazines having combined antiaggregant, anticoagulant and vasodilatory activity, and method for producing same” (Vertex Closed Joint Stock Company, priority 2011, dated 2016)

How the values were obtained:
[1] = test system: mesentery venules; assay: Vasodilator properties, microcirculatory vessel responsiveness to noradrenalin, venules; assay type: in vivo, Wistar male rats
Experimental: (§1) Vasodilator properties of N,N′-substituted piperazines were evaluated according to their influence on microcirculatory vessel responsiveness.
(§2) The studies were done on Wistar male rats with mass of 300±30 g (laboratory animals nursery “Rappolovo”, RAMS). The animals were kept with unlimited food (standard ration for laboratory rats K-120 by <<Inform-korm>>, Russia) and water allowance.
(§3) The solutions of N,N′-substituted piperazines and physiological (control) solution were introduced via bolus injection within 1 min into caudal vein of non-anaesthetized animals according to the dosage of 5.0 ml per 1 kg. Immediately after the introduction the animals were put in separate standard cages for observation.
(§4) In 30 min after the injection the animals were anaesthetized (thiopental sodium, 60 mg/kg intraperitoneally). The loop of small intestine adjoined to mesoappendix was retrieved through inferomedian incision. To study microcirculation in mesentery venules and arterioles in transmitted light the rat was placed on thermostated microscope objective table. The application of noradrenalin solution (Aguettant, 2 mg/ml, Laboratoire AGUETTANT, France) was done directly on the mesentery (Furness J. B., Marshall J. M., 1974; Yantareva L. I., 2004).
(§5) The study of microcirculatory vessels was done with LUMAM I1 microscope (LOMO, Russia). The recording of video data was done with the camera (Optics and Electronics ISTA Ltd) attached to a personal computer. The processing of data was done with Video-Test 4.0 software (ISTA Ltd., Russia). The diameter of the vessel wall (D, m) before and after the application of noradrenalin and the starting time of blood flow slowdown induced by noradrenalin were measured (the measurements were done for 1 min after the application).

[2] = test system: mesentery arterioles; assay: Vasodilator properties, microcirculatory vessel responsiveness to noradrenalin, arterioles; assay type: in vivo, Wistar male rats
Experimental: as §1, §2, §3, §4, §5

[3] = test system: experimental photothrombosis; assay: Experimental photothrombosis model, arterial blood velocity; assay type: in vivo, Wistar male rats
Experimental: The studies were done on Wistar male rats with mass of 230±30 g (laboratory animals nursery “Rappolovo”, RAMS). The animals were kept with unlimited food (standard ration for laboratory rats K-120 by <<Inform-korm>>, Russia) and water allowance. […]
Thrombosis modeling: the drugs were introduced into left femoral vein, in 50 min afterwards 1 ml of Bengal rose A photosensitizer (Acros Organics, USA) solution was introduced with dose of 17 mg/kg [Boselli 2007, Petrischev 2009]. Then the incision of internal surface of animal right thigh about 2 cm in length was made. The section of the femoral vein about 5 mm in length was released from surrounding tissues and separated from neurovascular bundle. Beneath this section of the vein the black non-transparent plastic strip 3 mm in width was laid to screen off the vein and surrounding tissues from radiation. The irradiation was done using diode laser <<DPSS-laser>> (Diode Pumped Solid State Laser, South Korea) with 532 nm wavelength and 60 mW power. The area of irradiation was 1 mm^2, exposing time was 40 min. The blood flow in femoral artery was measured by high frequency Doppler ultrasonography method (<<Minimax-Doppler-K>> apparatus, frequency of sensor was 20 MHz). The blood velocity alteration due to irradiation was measured (Table 9).

[4] = in vivo; cited from earlier work
[5] = 0.01 mmol/kg, noradrenalin 10^−6 g/ml
[6] = 0.025 mmol/kg, noradrenalin 10^−7 g/ml

Row | SMILES | % of vessel constriction [1, 5] | Blood flow slowdown, Latent period of slowdown [1, 5] | % of vessel constriction [1, 6] | % of vessel constriction [2, 5] | Blood flow slowdown, Latent period of slowdown [2, 5] | % of vessel constriction [2, 6] | V, cm/s (arterial blood velocity) ([3]; 0.01 mmol/kg, 0 min of irradiation) | V, cm/s (arterial blood velocity) ([3]; 0.01 mmol/kg, 10 min of irradiation) | V, cm/s (arterial blood velocity) ([3]; 0.01 mmol/kg, 20 min of irradiation) | V, cm/s (arterial blood velocity) ([3]; 0.01 mmol/kg, 30 min of irradiation) | V, cm/s (arterial blood velocity) ([3]; 0.01 mmol/kg, 40 min of irradiation) | V, cm/s (arterial blood velocity) ([3]; 0.025 mmol/kg, 0 min of irradiation) | V, cm/s (arterial blood velocity) ([3]; 0.025 mmol/kg, 10 min of irradiation) | V, cm/s (arterial blood velocity) ([3]; 0.025 mmol/kg, 20 min of irradiation) | V, cm/s (arterial blood velocity) ([3]; 0.025 mmol/kg, 30 min of irradiation) | V, cm/s (arterial blood velocity) ([3]; 0.025 mmol/kg, 40 min of irradiation) | dermal reactions that lead to treatment cessation [4] | gastrointestinal reactions that lead to treatment cessation [4]
1 | COc1ccc(CN2CCN(CC(CS(=O)(=O)[O-])OS(=O)(=O)[O-])CC2)c(OC)c1OC.[Na+].[Na+] (stereo not drawn) [Example 14, 2-sulfooxy-3-(4-((2,3,4-trimethoxyphenyl)-methyl)piperazine-1-yl)propane-1-sulfonic acid disodium salt monohydrate] | 33% | 41 ± 6 s | 22% | 58% | 43 ± 4 s | 28% | 6.9 ± 3.2 cm/s | 7.00 ± 2.0 cm/s | 6.8 ± 2.0 cm/s | 6.9 ± 1.3 cm/s | 6.6 ± 1.4 cm/s | 8.3 ± 1.8 cm/s | 8.1 ± 1.3 cm/s | 8.3 ± 2.0 cm/s | 8.0 ± 1.3 cm/s | 8.2 ± 1.2 cm/s |  | 
2 | Clc1ccccc1CN1CCc2sccc2C1 [ticlopidine] |  |  |  |  |  |  |  |  |  |  |  |  |  |  |  |  | 4-15% | up to 20%
